This is an account of results in US20230102554A1 (GB002, INC., priority 2019, published 2023).

Molecules are shown by their SMILES. Where only a bound is given, the exact number is not on record here.

Test [1] concerns the target T1, Human PDGFRα, cytoplasmic domain (GST-PDGFRα) (Homo sapiens, UniProt P16234).
T1 construct: made in house
The test is described as follows: Human PDGFRα biochemical inhibition assay (off-chip Mobility Shift Assay).

The target of test [2] is T2, Human PDGFRβ, cytoplasmic domain (GST-PDGFRβ) (Homo sapiens, UniProt P09619).
T2 construct: made in house
Nature of the test: Human PDGFRβ biochemical inhibition assay (off-chip Mobility Shift Assay). A digest of the protocol: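 GST-tagged cytoplasmic domain (aa 557-1106) from baculovirus was incubated 1 h at room temperature with compound, CSKtide, ATP at Km and Mg²⁺ in HEPES buffer, pH 7.5. Phosphorylated and unphosphorylated peptide were separated by off-chip mobility shift, and the product ratio P/(P+S) gave percent inhibition.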

T2 sequence (P09619 with tags, fused parts or gaps): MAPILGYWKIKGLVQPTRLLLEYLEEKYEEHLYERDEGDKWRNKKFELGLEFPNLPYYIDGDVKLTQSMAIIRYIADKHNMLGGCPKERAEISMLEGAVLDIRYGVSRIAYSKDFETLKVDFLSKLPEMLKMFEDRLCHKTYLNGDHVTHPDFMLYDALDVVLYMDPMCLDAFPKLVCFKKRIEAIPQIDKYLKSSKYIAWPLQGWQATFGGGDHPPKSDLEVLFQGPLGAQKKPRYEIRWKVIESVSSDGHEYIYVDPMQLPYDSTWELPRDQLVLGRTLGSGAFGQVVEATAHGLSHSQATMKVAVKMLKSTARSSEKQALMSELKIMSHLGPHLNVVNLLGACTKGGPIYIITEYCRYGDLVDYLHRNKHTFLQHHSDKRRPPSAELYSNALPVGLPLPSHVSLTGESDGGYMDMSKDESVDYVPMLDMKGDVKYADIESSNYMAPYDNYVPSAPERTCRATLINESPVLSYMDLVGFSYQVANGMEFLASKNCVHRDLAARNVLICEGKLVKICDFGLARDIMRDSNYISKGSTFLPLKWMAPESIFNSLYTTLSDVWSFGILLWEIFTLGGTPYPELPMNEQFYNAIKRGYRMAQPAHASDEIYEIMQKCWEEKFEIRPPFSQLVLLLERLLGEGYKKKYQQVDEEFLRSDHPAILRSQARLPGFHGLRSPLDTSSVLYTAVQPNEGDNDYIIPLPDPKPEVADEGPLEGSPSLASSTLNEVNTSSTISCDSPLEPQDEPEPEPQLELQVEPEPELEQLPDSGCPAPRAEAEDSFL
T1 sequence (P16234 550-1089 T674I): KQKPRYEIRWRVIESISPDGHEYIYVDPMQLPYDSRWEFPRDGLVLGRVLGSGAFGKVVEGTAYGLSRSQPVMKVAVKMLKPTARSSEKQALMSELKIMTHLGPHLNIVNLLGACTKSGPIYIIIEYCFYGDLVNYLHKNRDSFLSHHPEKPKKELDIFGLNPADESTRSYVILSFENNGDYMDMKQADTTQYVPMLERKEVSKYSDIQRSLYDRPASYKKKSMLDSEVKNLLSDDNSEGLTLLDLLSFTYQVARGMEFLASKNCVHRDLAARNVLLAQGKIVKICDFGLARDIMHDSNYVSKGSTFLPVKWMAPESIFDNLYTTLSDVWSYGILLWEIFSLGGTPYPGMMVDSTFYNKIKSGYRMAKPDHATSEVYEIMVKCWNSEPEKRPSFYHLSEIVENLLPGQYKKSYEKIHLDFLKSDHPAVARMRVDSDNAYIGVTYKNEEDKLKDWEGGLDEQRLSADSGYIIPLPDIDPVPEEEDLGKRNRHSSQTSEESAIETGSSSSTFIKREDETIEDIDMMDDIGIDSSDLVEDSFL

One may read the IC50 as the concentration at which inhibition is half-maximal. As to `CCn1cc2ncc(N[C@@H](C)c3cccc(NC(=O)c4ccc(CN5CCN(C)CC5)c(C)c4)c3)nc2n1` [Compound 402, (S)-N-(3-(1-((2-ethyl-2H-pyrazolo[3,4-b]pyrazin-6-yl)amino)ethyl)phenyl)-3-methyl-4-((4-methylpiperazin-1-yl)methyl)benzamide], the half-maximal inhibitory concentration (IC50) in test [1] and in test [2] was under 300 nM in each case.
As for `Cc1cc(C(=O)Nc2cccc([C@H](C)Nc3cnc4cnn(C)c4n3)c2)ccc1C(=O)OC(C)C` [Compound 258, isopropyl (S)-2-methyl-4-((3-(1-((1-methyl-1H-pyrazolo[3,4-b]pyrazin-6-yl)amino)ethyl)phenyl)carbamoyl)benzoate], the IC50 in test [1] and in test [2] was under 300 nM in each case.
As for `C[C@H](Nc1cnc2cnn(C)c2n1)c1cccc(NC(=O)c2ccc(Cl)s2)c1` [Compound 135, (S)-5-chloro-N-(3-(1-((1-methyl-1H-pyrazolo[3,4-b]pyrazin-6-yl)amino)ethyl)phenyl)thiophene-2-carboxamide], the IC50 in test [1] and in test [2] was under 300 nM in each case.
Consider `CCn1cc2ncc(N[C@@H](C)c3cccc(NC(=O)c4ccc(C(=O)N5CCN(C)CC5)c(Cl)c4)c3)nc2n1` [Compound 466, (S)-3-chloro-N-(3-(1-((2-ethyl-2H-pyrazolo[3,4-b]pyrazin-6-yl)amino)ethyl)phenyl)-4-(4-methylpiperazine-1-carbonyl) benzamide], for which the figures for the concentration for half-maximal inhibition (IC50) in test [1] and in test [2] were under 300 nM and 300 to 1000 nM, respectively.
Turning to `C[C@H](Nc1cnc2cnn(C)c2n1)c1cccc(NC(=O)c2cnc(C(F)(F)F)s2)c1` [Compound 139, (S)-N-(3-(1-((1-methyl-1H-pyrazolo[3,4-b]pyrazin-6-yl)amino)ethyl)phenyl)-2-(trifluoromethyl)thiazole-5-carboxamide], the 50% inhibitory concentration (IC50) in test [1] and in test [2] was under 300 nM in each case.
Take `CCn1cc2ncc(N[C@@H](C)c3cccc(NC(=O)c4ccc(CN5CCCC6(COC6)C5)c(C)c4)c3)nc2n1` [Compound 481, (S)-4-((2-oxa-6-azaspiro[3.5]nonan-6-yl)methyl)-N-(3-(1-((2-ethyl-2H-pyrazolo[3,4-b]pyrazin-6-yl)amino)ethyl)phenyl)-3-methylbenzamide]: the IC50 in test [1] and in test [2] was under 300 nM throughout.
As for `CCn1cc2ncc(N[C@@H](C)c3cccc(NC(=O)c4cnc(N5CCOCC5)c(C)c4)c3)nc2n1` [Compound 358, (S)-N-(3-(1-((2-ethyl-2H-pyrazolo[3,4-b]pyrazin-6-yl)amino)ethyl)phenyl)-5-methyl-6-morpholinonicotinamide], the 50% inhibitory concentration (IC50) in test [1] and in test [2] was under 300 nM in each case.
Turning to `CCOc1ccc(C(=O)Nc2cccc([C@H](C)Nc3cnc4[nH]nc(C)c4n3)c2)cn1` [Compound 537, (S)-6-ethoxy-N-(3-(1-((3-methyl-1H-pyrazolo[3,4-b]pyrazin-5-yl)amino)ethyl)phenyl)nicotinamide], the IC50 in test [1] and in test [2] was under 300 nM in each case.
`CCn1cc2ncc(N[C@@H](C)c3cccc(NC(=O)c4ccc(CN5CCCC5)c(C)c4)c3)nc2n1` [Compound 404, (S)-N-(3-(1-((2-ethyl-2H-pyrazolo[3,4-b]pyrazin-6-yl)amino)ethyl)phenyl)-3-methyl-4-(pyrrolidin-1-ylmethyl) benzamide]: the half-maximal inhibitory concentration (IC50) in test [1] and in test [2] was under 300 nM throughout.
Take `Cc1c[nH]c2ncc(N[C@@H](C)c3cccc(NC(=O)c4cnc(C5CC5)s4)c3)nc12` [Compound 571, (S)-2-cyclopropyl-N-(3-(1-((7-methyl-5H-pyrrolo[2,3-b]pyrazin-2-yl)amino)ethyl)phenyl)thiazole-5-carboxamide]: the IC50 in test [1] and in test [2] was under 300 nM throughout.
`Cc1cc(C(=O)Nc2cccc([C@H](C)Nc3cnc4[nH]cc(C)c4n3)c2)cnc1C(F)(F)F` [Compound 559, (S)-5-methyl-N-(3-(1-((7-methyl-5H-pyrrolo[2,3-b]pyrazin-2-yl)amino)ethyl)phenyl)-6-(trifluoromethyl) nicotinamide]: the IC50 in test [1] and in test [2] was under 300 nM each time.
For the compound `COc1cncc(C(=O)Nc2cccc([C@H](C)Nc3cnc4cnn(C)c4n3)c2)c1` [Compound 104, (S)-5-methoxy-N-(3-(1-((1-methyl-1H-pyrazolo[3,4-b]pyrazin-6-yl)amino)ethyl)phenyl)nicotinamide], the IC50 in test [1] and in test [2] was under 300 nM in each case.
Turning to `CCn1cc2ncc(N[C@@H](C)c3cccc(NC(=O)c4ccc(CN5CCOCC5)c(C(F)(F)F)c4)c3)nc2n1` [Compound 424, (S)-N-(3-(1-((2-ethyl-2H-pyrazolo[3,4-b]pyrazin-6-yl)amino)ethyl)phenyl)-4-(morpholinomethyl)-3-(trifluoromethyl)benzamide], the half-maximal inhibitory concentration (IC50) in test [1] and in test [2] was under 300 nM in each case.
As to `Cc1cncc(C(=O)Nc2cccc([C@H](C)Nc3cnc4[nH]ccc4n3)c2)c1` [Compound 552, (S)-N-(3-(1-((5H-pyrrolo[2,3-b]pyrazin-2-yl)amino)ethyl)phenyl)-5-methylnicotinamide], the 50% inhibitory concentration (IC50) in test [1] and in test [2] was under 300 nM throughout.
In the case of `Cc1n[nH]c2ncc(N[C@@H](C)c3cccc(NC(=O)c4cc(C(F)(F)F)nn4C)c3)nc12` [Compound 548, (S)-1-methyl-N-(3-(1-((3-methyl-1H-pyrazolo[3,4-b]pyrazin-5-yl)amino)ethyl)phenyl)-3-(trifluoromethyl)-1H-pyrazole-5-carboxamide], the IC50 in test [1] and in test [2] was under 300 nM throughout.
As to `Cc1cncc(C(=O)Nc2cccc([C@H](C)Nc3cnc4cn(C)nc4n3)c2)c1` [Compound 274, (S)-5-methyl-N-(3-(1-((2-methyl-2H-pyrazolo[3,4-b]pyrazin-6-yl)amino)ethyl)phenyl)nicotinamide], the concentration for half-maximal inhibition (IC50) in test [1] is under 300 nM; in test [2] it was at least 1000 nM.
With `Cc1cc(C(=O)Nc2cccc([C@H](C)Nc3cnc4cnn(C)c4n3)c2)cnc1CN1CCOCC1` [Compound 239, (S)-5-methyl-N-(3-(1-((1-methyl-1H-pyrazolo[3,4-b]pyrazin-6-yl)amino)ethyl)phenyl)-6-(morpholinomethyl) nicotinamide], the concentration for half-maximal inhibition (IC50) in test [1] and in test [2] was under 300 nM in each case.
As for `CCn1cc2ncc(N[C@@H](C)c3cccc(NC(=O)Nc4ccc(OC(F)(F)F)nc4)c3)nc2n1` [Compound 407, (S)-1-(3-(1-((2-ethyl-2H-pyrazolo[3,4-b]pyrazin-6-yl)amino)ethyl)phenyl)-3-(6-(trifluoromethoxy)pyridin-3-yl) urea], the half-maximal inhibitory concentration (IC50) in test [1] and in test [2] was under 300 nM in each case.
As to `CCn1cc2ncc(N[C@@H](C)c3cc(NC(=O)Cc4ccc(C)nc4)ccc3C)nc2n1` [Compound 664, (S)-N-(3-(1-((2-ethyl-2H-pyrazolo[3,4-b]pyrazin-6-yl)amino)ethyl)-4-methylphenyl)-2-(6-methylpyridin-3-yl) acetamide], the figures for the IC50 in test [1] and in test [2] were under 300 nM and at least 1000 nM, respectively.
On to `CCn1cc2ncc(N[C@@H](C)c3cc(NC(=O)c4ccc(F)c(Cl)c4)ccc3C)nc2n1` [Compound 507, (S)-3-chloro-N-(3-(1-((2-ethyl-2H-pyrazolo[3,4-b]pyrazin-6-yl)amino)ethyl)-4-methylphenyl)-4-fluorobenzamide], for which the half-maximal inhibitory concentration (IC50) in test [1] and in test [2] was under 300 nM throughout.
`C[C@H](Nc1cnc2cnn(C)c2n1)c1cccc(NC(=O)Nc2ccccc2)c1` [Compound 729, (S)-1-(3-(1-((1-methyl-1H-pyrazolo[3,4]pyrazin-6-yl)amino)ethyl)phenyl)-3-phenylurea]: the half-inhibitory concentration (IC50) in test [1] and in test [2] was under 300 nM each time.
Turning to `CCn1cc2ncc(N[C@@H](C)c3cccc(NC(=O)c4ccc(CN5CC6(COC6)C5)c(Cl)c4)c3)nc2n1` [Compound 415, (S)-4-((2-oxa-6-azaspiro[3.3]heptan-6-yl)methyl)-3-chloro-N-(3-(1-((2-ethyl-2H-pyrazolo[3,4-b]pyrazin-6-yl)amino)ethyl)phenyl)benzamide], the half-maximal inhibitory concentration (IC50) in test [1] and in test [2] was under 300 nM in each case.
Take `Cc1cncc(C(=O)Nc2cccc([C@H](C)Nc3cnc4ccsc4n3)c2)c1` [Compound 607]: the half-inhibitory concentration (IC50) in test [1] and in test [2] was under 300 nM throughout.
For `CSc1ncc(C(=O)Nc2cccc([C@H](C)Nc3cnc4cnn(C)c4n3)c2)cc1C` [Compound 223, (S)-5-methyl-N-(3-(1-((1-methyl-1H-pyrazolo[3,4-b]pyrazin-6-yl)amino)ethyl)phenyl)-6-(methylthio)nicotinamide], the IC50 in test [1] and in test [2] was under 300 nM in each case.
`Cc1ncc(C(=O)Nc2cccc([C@H](C)Nc3cnc4[nH]cc(-c5cnn(C)c5)c4n3)c2)s1` [Compound 583, (S)-2-methyl-N-(3-(1-((7-(1-methyl-1H-pyrazol-4-yl)-5H-pyrrolo[2,3-b]pyrazin-2-yl)amino)ethyl)phenyl)thiazole-5-carboxamide]: the IC50 in test [1] and in test [2] was under 300 nM each time.
Regarding `CCn1cc2ncc(N[C@@H](C)c3cccc(NC(=O)c4ccc(CN5CC6(COC6)C5)c(C5CC5)c4)c3)nc2n1` [Compound 505, (S)-4-((2-oxa-6-azaspiro[3.3]heptan-6-yl)methyl)-3-cyclopropyl-N-(3-(1-((2-ethyl-2H-pyrazolo[3,4-b]pyrazin-6-yl)amino)ethyl)phenyl)benzamide], the IC50 in test [1] and in test [2] was under 300 nM each time.
For `CCn1cc2ncc(N[C@@H](C)c3cccc(NC(=O)c4cnc(C)s4)c3)nc2n1` [Compound 294, (S)-N-(3-(1-((2-ethyl-2H-pyrazolo[3,4-b]pyrazin-6-yl)amino)ethyl)phenyl)-2-methylthiazole-5-carboxamide], the IC50 in test [1] and in test [2] was 300 to 1000 nM in each case.
In the case of `CSc1cc(C(=O)Nc2cccc([C@H](C)Nc3cnc4cnn(C)c4n3)c2)ccc1Cl` [Compound 236, (S)-4-chloro-N-(3-(1-((1-methyl-1H-pyrazolo[3,4-b]pyrazin-6-yl)amino)ethyl)phenyl)-3-(methylthio)benzamide], the IC50 in test [1] and in test [2] was under 300 nM throughout.
